Results as given in paper PMC8427794 (ACS Omega, 2021).
Read-outs that look alike come from different tables or passages of the source. One block for each molecule: values may come before it.

Columns and labels:
[1] = Rat liver microsomal stability; type: in vitro ADME; settings: incubation with microsomes for 15 min at 5 μM
[2] = Human liver microsomal stability; type: in vitro ADME; settings: incubation with microsomes for 15 min at 5 μM
[3] = Brain and plasma kinetics in rat after a single dose; type: in vivo, male Sprague Dawley rat
mGlu2 receptor [4] = biological target: T1, mGlu2 receptor (Homo sapiens, UniProt Q14416); experiment: [35S]GTPγS binding assay, agonist mode; type: biochemical; settings: for Emax: read-out: mGlu2 Ago EMAX ±SD
mGlu3 = mGlu3 (Homo sapiens, UniProt Q14832); experiment: Selectivity panel, mGlu3 Ca2+ assay; type: cell-based
mGlu3, sequence (Q14832 23-879): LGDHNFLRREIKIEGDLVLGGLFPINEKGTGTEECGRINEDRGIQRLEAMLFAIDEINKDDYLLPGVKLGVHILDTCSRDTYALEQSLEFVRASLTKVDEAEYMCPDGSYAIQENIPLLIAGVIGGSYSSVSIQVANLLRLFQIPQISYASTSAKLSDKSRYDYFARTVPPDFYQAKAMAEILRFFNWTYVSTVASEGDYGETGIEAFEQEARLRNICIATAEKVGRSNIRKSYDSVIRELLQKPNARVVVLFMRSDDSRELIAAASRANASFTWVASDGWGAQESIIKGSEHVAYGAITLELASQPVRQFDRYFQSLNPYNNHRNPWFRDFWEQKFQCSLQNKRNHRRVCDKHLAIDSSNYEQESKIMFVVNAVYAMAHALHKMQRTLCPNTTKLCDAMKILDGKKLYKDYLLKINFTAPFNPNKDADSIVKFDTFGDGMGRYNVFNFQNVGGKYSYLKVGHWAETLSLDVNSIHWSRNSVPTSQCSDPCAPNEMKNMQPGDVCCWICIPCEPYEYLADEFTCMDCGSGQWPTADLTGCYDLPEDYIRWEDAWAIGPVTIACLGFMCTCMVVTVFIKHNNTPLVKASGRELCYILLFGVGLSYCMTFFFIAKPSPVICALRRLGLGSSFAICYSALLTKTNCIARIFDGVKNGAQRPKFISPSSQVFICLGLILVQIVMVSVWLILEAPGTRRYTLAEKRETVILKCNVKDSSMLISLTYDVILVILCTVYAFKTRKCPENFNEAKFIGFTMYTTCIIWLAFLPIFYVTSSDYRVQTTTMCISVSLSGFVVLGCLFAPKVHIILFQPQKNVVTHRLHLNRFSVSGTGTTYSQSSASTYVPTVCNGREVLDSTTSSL

mGlu7 = mGlu7 (Homo sapiens, UniProt Q14831); experiment: Selectivity panel, mGlu7 Ca2+ assay; type: cell-based
mGlu7, sequence (Q14831 35-915): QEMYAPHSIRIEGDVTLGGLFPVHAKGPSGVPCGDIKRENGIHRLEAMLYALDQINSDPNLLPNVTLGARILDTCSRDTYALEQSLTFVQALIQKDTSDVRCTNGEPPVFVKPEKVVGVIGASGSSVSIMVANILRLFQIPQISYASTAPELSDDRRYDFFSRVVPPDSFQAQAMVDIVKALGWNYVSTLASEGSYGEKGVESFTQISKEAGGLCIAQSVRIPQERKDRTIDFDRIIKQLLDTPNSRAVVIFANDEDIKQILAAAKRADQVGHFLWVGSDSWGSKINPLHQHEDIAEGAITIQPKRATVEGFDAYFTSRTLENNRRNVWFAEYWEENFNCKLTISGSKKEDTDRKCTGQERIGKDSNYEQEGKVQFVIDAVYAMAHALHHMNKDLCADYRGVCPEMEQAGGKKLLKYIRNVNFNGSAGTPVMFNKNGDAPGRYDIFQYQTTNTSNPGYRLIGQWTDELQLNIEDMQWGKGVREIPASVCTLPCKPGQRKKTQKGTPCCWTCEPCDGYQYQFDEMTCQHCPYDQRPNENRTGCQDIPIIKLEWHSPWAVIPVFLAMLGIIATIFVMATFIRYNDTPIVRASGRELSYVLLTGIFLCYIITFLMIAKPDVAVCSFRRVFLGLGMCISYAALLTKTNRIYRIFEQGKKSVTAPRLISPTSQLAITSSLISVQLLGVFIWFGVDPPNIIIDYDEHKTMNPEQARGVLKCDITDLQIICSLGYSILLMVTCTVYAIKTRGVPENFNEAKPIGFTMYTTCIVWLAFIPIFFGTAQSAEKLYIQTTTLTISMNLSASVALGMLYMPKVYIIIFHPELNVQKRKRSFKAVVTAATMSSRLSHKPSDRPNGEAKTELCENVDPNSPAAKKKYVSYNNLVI

mGlu1 = mGlu1 (Homo sapiens, UniProt Q13255); experiment: Selectivity panel, mGlu1 Ca2+ assay; type: cell-based
mGlu1, sequence (Q13255 19-1194): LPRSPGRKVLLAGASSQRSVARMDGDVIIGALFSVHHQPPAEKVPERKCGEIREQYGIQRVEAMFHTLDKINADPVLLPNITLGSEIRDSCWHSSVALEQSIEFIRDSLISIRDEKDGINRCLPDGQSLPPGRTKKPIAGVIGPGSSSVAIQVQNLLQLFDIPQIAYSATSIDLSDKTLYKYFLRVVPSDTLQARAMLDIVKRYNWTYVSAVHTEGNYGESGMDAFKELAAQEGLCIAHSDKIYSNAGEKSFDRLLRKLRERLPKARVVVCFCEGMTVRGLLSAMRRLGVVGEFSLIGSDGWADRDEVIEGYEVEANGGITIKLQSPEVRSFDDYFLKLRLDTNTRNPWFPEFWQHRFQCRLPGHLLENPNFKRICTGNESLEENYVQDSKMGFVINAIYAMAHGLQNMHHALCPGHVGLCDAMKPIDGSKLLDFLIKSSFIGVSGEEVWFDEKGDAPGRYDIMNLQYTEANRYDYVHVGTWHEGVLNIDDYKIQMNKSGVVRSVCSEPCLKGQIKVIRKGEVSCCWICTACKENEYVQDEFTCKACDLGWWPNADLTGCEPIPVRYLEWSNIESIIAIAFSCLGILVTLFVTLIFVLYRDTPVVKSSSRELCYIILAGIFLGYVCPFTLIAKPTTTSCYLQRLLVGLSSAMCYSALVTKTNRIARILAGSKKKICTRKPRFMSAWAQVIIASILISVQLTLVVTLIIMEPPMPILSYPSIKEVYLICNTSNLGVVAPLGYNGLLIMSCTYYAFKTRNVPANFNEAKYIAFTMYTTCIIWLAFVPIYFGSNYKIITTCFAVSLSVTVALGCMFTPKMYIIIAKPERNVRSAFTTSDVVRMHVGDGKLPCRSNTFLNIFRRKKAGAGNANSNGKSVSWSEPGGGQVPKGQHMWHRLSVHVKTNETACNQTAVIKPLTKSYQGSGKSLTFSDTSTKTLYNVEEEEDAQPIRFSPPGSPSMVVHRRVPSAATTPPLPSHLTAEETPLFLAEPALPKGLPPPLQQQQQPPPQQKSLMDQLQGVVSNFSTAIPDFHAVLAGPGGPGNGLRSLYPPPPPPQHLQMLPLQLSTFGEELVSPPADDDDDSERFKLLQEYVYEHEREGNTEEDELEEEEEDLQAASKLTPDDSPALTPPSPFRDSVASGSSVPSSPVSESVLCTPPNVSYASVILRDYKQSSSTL

mGlu6 = mGlu6 (Rattus norvegicus, UniProt P35349); experiment: Selectivity panel, mGlu6 [35S]GTPγS binding; type: biochemical
mGlu8 = mGlu8 (Homo sapiens, UniProt O00222); experiment: Selectivity panel, mGlu8 Ca2+ assay; type: cell-based
mGlu8, sequence (O00222 34-908): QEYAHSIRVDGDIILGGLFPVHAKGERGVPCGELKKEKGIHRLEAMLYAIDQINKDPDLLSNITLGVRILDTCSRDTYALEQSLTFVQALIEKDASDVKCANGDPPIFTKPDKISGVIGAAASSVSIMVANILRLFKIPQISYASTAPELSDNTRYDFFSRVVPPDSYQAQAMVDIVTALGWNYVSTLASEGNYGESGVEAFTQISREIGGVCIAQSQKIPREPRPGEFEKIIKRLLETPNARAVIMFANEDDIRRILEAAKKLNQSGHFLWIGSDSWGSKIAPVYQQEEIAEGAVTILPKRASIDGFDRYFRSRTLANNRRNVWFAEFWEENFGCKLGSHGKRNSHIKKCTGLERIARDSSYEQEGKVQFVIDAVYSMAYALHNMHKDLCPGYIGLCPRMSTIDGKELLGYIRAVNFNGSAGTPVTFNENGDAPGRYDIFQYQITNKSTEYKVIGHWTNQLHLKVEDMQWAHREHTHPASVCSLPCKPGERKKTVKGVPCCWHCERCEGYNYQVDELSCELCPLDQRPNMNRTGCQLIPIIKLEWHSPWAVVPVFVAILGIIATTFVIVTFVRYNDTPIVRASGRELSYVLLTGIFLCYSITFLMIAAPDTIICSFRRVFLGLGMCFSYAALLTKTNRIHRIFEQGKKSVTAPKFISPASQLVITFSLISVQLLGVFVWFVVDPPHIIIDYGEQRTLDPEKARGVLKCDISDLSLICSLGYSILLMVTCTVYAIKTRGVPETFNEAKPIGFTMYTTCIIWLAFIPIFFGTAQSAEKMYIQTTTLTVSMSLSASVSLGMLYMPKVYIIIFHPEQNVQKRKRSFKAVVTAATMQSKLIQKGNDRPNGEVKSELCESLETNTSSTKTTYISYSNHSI

mGlu5 = mGlu5 (Homo sapiens, UniProt P41594); experiment: Selectivity panel, mGlu5 Ca2+ assay; type: cell-based
mGlu5, sequence (P41594 21-1212): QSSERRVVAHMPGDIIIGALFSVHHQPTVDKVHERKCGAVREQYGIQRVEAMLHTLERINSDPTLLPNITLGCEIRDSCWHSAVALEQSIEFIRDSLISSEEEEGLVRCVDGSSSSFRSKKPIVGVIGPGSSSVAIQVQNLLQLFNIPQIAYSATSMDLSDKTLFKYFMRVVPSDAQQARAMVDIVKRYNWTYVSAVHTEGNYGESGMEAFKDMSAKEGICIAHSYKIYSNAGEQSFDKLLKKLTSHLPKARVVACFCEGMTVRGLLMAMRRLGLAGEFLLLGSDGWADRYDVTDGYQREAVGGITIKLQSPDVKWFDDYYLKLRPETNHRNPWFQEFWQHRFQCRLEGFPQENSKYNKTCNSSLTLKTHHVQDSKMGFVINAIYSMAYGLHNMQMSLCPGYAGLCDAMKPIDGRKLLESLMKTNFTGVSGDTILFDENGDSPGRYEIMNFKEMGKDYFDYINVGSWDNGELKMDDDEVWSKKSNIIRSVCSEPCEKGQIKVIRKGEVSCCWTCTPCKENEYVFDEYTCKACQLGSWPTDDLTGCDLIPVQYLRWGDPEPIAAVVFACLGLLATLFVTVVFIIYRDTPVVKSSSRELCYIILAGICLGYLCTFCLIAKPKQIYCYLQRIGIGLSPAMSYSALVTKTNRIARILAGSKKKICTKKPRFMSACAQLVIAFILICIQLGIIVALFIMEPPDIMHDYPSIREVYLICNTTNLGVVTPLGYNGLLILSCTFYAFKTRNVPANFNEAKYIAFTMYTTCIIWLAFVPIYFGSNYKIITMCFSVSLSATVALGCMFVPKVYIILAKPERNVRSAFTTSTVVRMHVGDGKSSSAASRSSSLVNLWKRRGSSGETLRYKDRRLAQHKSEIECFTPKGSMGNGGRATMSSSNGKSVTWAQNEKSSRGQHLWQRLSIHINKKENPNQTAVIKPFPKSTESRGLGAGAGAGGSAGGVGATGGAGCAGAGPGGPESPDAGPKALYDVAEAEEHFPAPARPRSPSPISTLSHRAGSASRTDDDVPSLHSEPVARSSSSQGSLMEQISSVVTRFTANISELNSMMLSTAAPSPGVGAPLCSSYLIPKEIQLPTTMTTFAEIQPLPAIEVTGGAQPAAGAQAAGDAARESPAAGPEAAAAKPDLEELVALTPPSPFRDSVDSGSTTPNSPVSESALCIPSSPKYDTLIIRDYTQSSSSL

mGlu4 = mGlu4 (Homo sapiens, UniProt Q14833); experiment: Selectivity panel, mGlu4 assay; type: cell-based
mGlu2 receptor [5] = biological target: T1, mGlu2 receptor; experiment: [35S]GTPγS binding assay, PAM mode; type: biochemical
[6] = male, Sprague Dawley, brain, sc, 10 mg/kg
[7] = male, Sprague Dawley, brain/plasma, sc, 10 mg/kg
[8] = male, Sprague Dawley, plasma, sc, 10 mg/kg, pH 3
[9] = male, Sprague Dawley, plasma, sc, 10 mg/kg
[10] = male, Sprague Dawley, brain, po, 10 mg/kg
[11] = male, Sprague Dawley, plasma, po, 10 mg/kg

RLM (%), percentage of compound metabolized [1]: 45%
HLM (%), percentage of compound metabolized [2]: 2%
SMILES: CCCCn1ccn2c(-c3ccc(OCC4CC4)c(Cl)c3)nnc2c1=O [Compound 4a, 7-Butyl-3-[3-chloro-4-(cyclopropylmethoxy)phenyl]-[1,2,4]triazolo[4,3-a]pyrazin-8-one]

RLM (%), percentage of compound metabolized [1]: 25%
HLM (%), percentage of compound metabolized [2]: 1%
SMILES: CCCCn1cnn2c(-c3ccc(OCC4CC4)c(Cl)c3)cnc2c1=O [Compound 4b, 3-Butyl-7-[3-chloro-4-(cyclopropylmethoxy)phenyl]imidazo[2,1-f][1,2,4]triazin-4-one]

RLM (%), percentage of compound metabolized [1]: 21%
HLM (%), percentage of compound metabolized [2]: 4%
SMILES: CCCCn1ncn2c(-c3ccc(OCC4CC4)c(Cl)c3)cnc2c1=O [Compound 4c, 7-Butyl-3-[3-chloro-4-(cyclopropylmethoxy)phenyl]imidazo[1,2-d][1,2,4]triazin-8-one]

RLM (%), percentage of compound metabolized [1]: 60%
HLM (%), percentage of compound metabolized [2]: 0%
SMILES: CCCCn1cnc2c(-c3ccc(OCC4CC4)c(Cl)c3)c(C)nn2c1=O [Compound 4d, 3-Butyl-8-[3-chloro-4-(cyclopropylmethoxy)phenyl]-7-methyl-pyrazolo[1,5-a][1,3,5]triazin-4-one]

RLM (%), percentage of compound metabolized [1]: 74%
fold decrease in mGlu2 PAM potency vs 3e (mGlu2 receptor [5]): ~10 fold
HLM (%), percentage of compound metabolized [2]: 31%
EC50 (mGlu2 receptor [4]): > 50.1 µM
Emax (mGlu2 receptor [4]): 12%
SMILES: CCCCn1ccn2c(-c3ccc(OCC4CC4)c(Cl)c3)nc(C)c2c1=O [Compound 4e, 7-Butyl-3-[3-chloro-4-(cyclopropylmethoxy)phenyl]-1-methyl-imidazo[1,5-a]pyrazin-8-one]

Further lines, the molecule ahead of its results:

SMILES: CCCCn1ccn2c(CN3CCC(c4ccccc4)CC3)c(C)nc2c1=O [Compound 3a]
RLM (%), percentage of compound metabolized [1]: 58%
HLM (%), percentage of compound metabolized [2]: 20%

SMILES: CCCCn1ccn2c(-c3ccc(Oc4ccc(C)nc4C)c(F)c3)c(C)nc2c1=O [Compound 3c]
RLM (%), percentage of compound metabolized [1]: 56%
HLM (%), percentage of compound metabolized [2]: 24%
concentration at 1 h [3, 6]: 446 ng/g
Kp at 1 h [3, 7]: 0.2
concentration at 1 h [3, 8]: 1820 ng/mL
EC50 (mGlu2 receptor [4]): 1.82 µM
Emax (mGlu2 receptor [4]): 54%

SMILES: CCCCn1ccn2c(-c3ccc(NCc4ccc(OC)nc4)cc3)c(C)nc2c1=O [Compound 3d]
RLM (%), percentage of compound metabolized [1]: 36%
HLM (%), percentage of compound metabolized [2]: 59%
Kp at […] [3, 7]: 0.3
EC50 (mGlu2 receptor [4]): 0.571 µM
Emax (mGlu2 receptor [4]): 47 ± 1%

SMILES: CCCCn1ccn2c(-c3ccc(OCC4CC4)c(Cl)c3)c(C)nc2c1=O [Compound 3e]
IC50 (mGlu3): > 30 µM
EC50 (mGlu3; mGlu3 PAM EC50, Ca2+ read-out): 14.3 µM
EC50 (mGlu3; mGlu3 agonism EC50, Ca2+ read-out): > 30 µM
Emax (mGlu3; read-out: mGlu3 PAM Emax): 63%
Emax (mGlu3; read-out: mGlu3 agonism Emax): 2%
Emax (mGlu3; read-out: mGlu3 antagonism Emax): 15%
EC50 (mGlu7): > 25 µM
IC50 (mGlu7): 8.32 µM
Emax (mGlu7; read-out: mGlu7 PAM Emax): 5%
EC50 (mGlu7; read-out: mGlu7 agonism EC50, Ca2+ read-out): > 25 µM
Emax (mGlu7; read-out: mGlu7 agonism Emax): 1%
Emax (mGlu7; read-out: mGlu7 antagonism Emax): 27%
RLM (%), percentage of compound metabolized [1]: 49%
EC50 (mGlu1): > 30 µM
IC50 (mGlu1): > 30 µM
Emax (mGlu1; read-out: mGlu1 agonism Emax): 4%
Emax (mGlu1; read-out: mGlu1 antagonism Emax): 18%
EC50 (mGlu6): > 30 µM
IC50 (mGlu6): 26.5 µM
Emax (mGlu6; read-out: mGlu6 agonism Emax): 1%
Emax (mGlu6; read-out: mGlu6 antagonism Emax): 53%
EC50 (mGlu8): > 25 µM
IC50 (mGlu8): > 25 µM
EC50 (mGlu8; read-out: mGlu8 agonism EC50, Ca2+ read-out): > 25 µM
Emax (mGlu8; read-out: mGlu8 agonism Emax): -4%
Emax (mGlu8; read-out: mGlu8 antagonism Emax): 16%
HLM (%), percentage of compound metabolized [2]: 20%
concentration at 1 h [3, 6]: 2540 ng/g
concentration at 2 h [3, 6]: 2860 ng/g
concentration at 4 h [3, 6]: 835 ng/g
concentration at 2 h [3, 9]: 1390 ng/mL
concentration at 4 h [3, 9]: 526 ng/mL
concentration at 1 h [3, 8]: 1420 ng/mL
EC50 (mGlu5): > 30 µM
IC50 (mGlu5): > 30 µM
Emax (mGlu5; read-out: mGlu5 PAM Emax): 0%
EC50 (mGlu5; read-out: mGlu5 agonism EC50, Ca2+ read-out): > 30 µM
Emax (mGlu5; read-out: mGlu5 agonism Emax): 0%
Emax (mGlu5; read-out: mGlu5 antagonism Emax): 7%
EC50 (mGlu4): > 25 µM
IC50 (mGlu4): 17 µM
Emax (mGlu4; read-out: mGlu4 agonism Emax): 5%
Emax (mGlu4; read-out: mGlu4 antagonism Emax): 100%

SMILES: CCCCn1ccn2c(-c3ccc(N4CCNCC4)c(Cl)c3)c(C)nc2c1=O [Compound 3g]
RLM (%), percentage of compound metabolized [1]: 17%
HLM (%), percentage of compound metabolized [2]: 0%
EC50 (mGlu2 receptor [4]): 0.989 µM
Emax (mGlu2 receptor [4]): 36 ± 4%

SMILES: CCCCn1ccn2c(-c3ccc4c(ccn4-c4cccnc4)c3)c(C)nc2c1=O [Compound 3i]
RLM (%), percentage of compound metabolized [1]: 47%
HLM (%), percentage of compound metabolized [2]: 35%
EC50 (mGlu2 receptor [4]): 0.229 µM
Emax (mGlu2 receptor [4]): 44%

SMILES: CCCCn1ccn2c(-c3ccc(Oc4ccccc4)cc3)c(C)nc2c1=O [Compound 3j]
RLM (%), percentage of compound metabolized [1]: 86%
HLM (%), percentage of compound metabolized [2]: 2%
brain level 4 h ([3]; 10 mg/kg p.o., 4 h): BQL ^d
concentration at 1 h [3, 10]: 104 ng/g
concentration at 2 h [3, 10]: 92 ng/g
Kp at 2 h ([3]; male, Sprague Dawley, brain/plasma, po, 10 mg/kg): 0.5
concentration at 1 h [3, 11]: 263 ng/mL
concentration at 2 h [3, 11]: 192 ng/mL
concentration at 4 h [3, 11]: 14 ng/mL
EC50 (mGlu2 receptor [4]): 0.151 µM
Emax (mGlu2 receptor [4]): 48 ± 2%
